From US20100093725A1, “SEMI-SOLID FORMULATIONS OF PHOSPHOLIPASE ENZYME INHIBITORS” (Wyeth, priority 2006, published 2010) come the findings set out here.

A short description of data set [1]: Solubility at room temperature in water, acid and basic conditions. Type of data set: physicochemical. The conditions noted are these: aqueous solution under acid conditions (free acid form), aqueous buffer, HPLC detection limit, read-out: intrinsic solubility of the free acid. The procedure:
The solubility of 4-(3-{5-chloro-1-(diphenylmethyl)-2-[2-({[2-(trifluoromethyl)benzyl]sulfonyl}amino)ethyl]-1H-indol-3-yl}propyl)benzoic acid was measured at room temperature in water, acid and basic conditions.

In data set [2] the test system is carrageenan-induced paw edema. As to the kind of experiment: Rat carrageenan-induced paw edema (CPE) study. The data set is classed as in vivo. The procedure:
Data from a rat carrageenan-induced paw edema (CPE) study indicated the minimum efficacious exposure of 4-(3-{5-chloro-1-(diphenylmethyl)-2-[2-({[2-(trifluoromethyl)benzyl]sulfonyl}amino) ethyl]-1H-indol-3-yl}propyl)benzoic acid was 1360 ng*hr/ml.
(In general: In the carrageenan paw model, swelling and tenderness develop within hours.)

Regarding `O=C(O)c1ccc(CCCc2c(CCNS(=O)(=O)Cc3ccccc3C(F)(F)F)n(C(c3ccccc3)c3ccccc3)c3ccc(Cl)cc23)cc1` [4-(3-{5-chloro-1-(diphenylmethyl)-2-[2-({[2-(trifluoromethyl)benzyl]sulfonyl}amino)ethyl]-1H-indol-3-yl}propyl)benzoic acid], the solubility in data set [1] was below 0.031 µg/mL. In data set [2], this compound had a minimum efficacious exposure of 1360 ng·h/mL.

One may read the solubility as the concentration that dissolves in the medium under given conditions.
